According to ChEMBL document CHEMBL2046394, “Isolation and characterization of α,β-unsaturated γ-lactono-hydrazides from Streptomyces sp” (J Nat Prod, 2012):
The source made the active and inactive calls. No cut-off for these calls is given here.

Legend:
Escherichia coli = experiment: Antibacterial activity against Escherichia coli ATCC 25922 by disk inhibition zone method; assay type: functional, organism-based
Micrococcus luteus = experiment: Antibacterial activity against Micrococcus luteus ATCC 10240 by disk inhibition zone method; assay type: functional, organism-based
[1] = Cytotoxicity against human MDA231 cells assessed as growth inhibition after 72 hrs; assay type: functional, cell-based; details: MDA-MB-231, 72 h
Bacillus subtilis = experiment: Antibacterial activity against Bacillus subtilis ATCC 6633 by disk inhibition zone method; assay type: functional, organism-based
Caco-2 = experiment: Cytotoxicity against human Caco2 cells by MTT assay; assay type: functional, cell-based

Row | Structure (SMILES) | Activity (Escherichia coli) | Activity (Micrococcus luteus) | IC50 [1] [µM] | Activity (Bacillus subtilis) | IC50 (Caco-2) [µM]
1 | CCCC/C=C\N(NC(C)=O)C(=O)CCC1=CCOC1=O [GERALCIN B] | inactive | inactive | 5 | inactive | –
2 | COc1cc(/C=C/C(=O)N(CCc2c[nH]c3ccc(O)cc23)N(CCc2c[nH]c3ccc(O)cc23)C(=O)/C=C/c2ccc(O)c(OC)c2)ccc1O [MONTAMINE] | – | – | – | – | 43.9
3 | CCCCCCN(NC(=O)CO)C(=O)CCC1=CCOC1=O | inactive | inactive | – | inactive | –
4 | O=C(O)CCC1=CCOC1=O | inactive | inactive | – | inactive | –
